Assay results reported in patent publication EP4702986A1, “POLYPEPTIDE AND USE THEREOF” (Biocells (Beijing) Biotech Co., Ltd., priority 2023, dated 2024).
Each block holds one compound with its values, some of them ahead of it. Numbered stars: 1 amine (or outer) side, 2 acyl side, 3 side chain; on linkers, the order of the positions; unused ones are H or OH. Bridge positions count the residues as written; N and C are the ends. Square brackets hold non-standard residues; d marks the D form. Side chains are listed from the residue outwards. Peptide text beside a SMILES is read from it. * marks the point of attachment. ξ: configuration not given here. γGlu = O=C(O)[C@H](CCC(=O)[*:2])N[*:1]; Feruloyl = COc1cc(/C=C/C(=O)*)ccc1O; ξ2Nal = NC(Cc1ccc2ccccc2c1)C(=O)O; Fumaroyl = O=C(O)/C=C/C(=O)*; Suc = O=C(CCC(=O)[*:2])[*:1]; Lauroyl = CCCCCCCCCCCC(=O)*; AEEA = NCCOCCOCC(=O)O

How the values were obtained:
human ETB receptor = molecular target: T1, human ETB receptor (Homo sapiens, UniProt P24530); assay: Determination of EC50 of polypeptides against human ETB receptor (IP-One Gq kit); format: cell-based; details: 293T-17 cells transfected with PCDNA3.1-hETB; read-out: hETBR agonist activity EC50/nM
T1 construct: expressed in transfected cells; host or cells: 293T-17 cells, transient transfection
T1 sequence (P24530 27-442): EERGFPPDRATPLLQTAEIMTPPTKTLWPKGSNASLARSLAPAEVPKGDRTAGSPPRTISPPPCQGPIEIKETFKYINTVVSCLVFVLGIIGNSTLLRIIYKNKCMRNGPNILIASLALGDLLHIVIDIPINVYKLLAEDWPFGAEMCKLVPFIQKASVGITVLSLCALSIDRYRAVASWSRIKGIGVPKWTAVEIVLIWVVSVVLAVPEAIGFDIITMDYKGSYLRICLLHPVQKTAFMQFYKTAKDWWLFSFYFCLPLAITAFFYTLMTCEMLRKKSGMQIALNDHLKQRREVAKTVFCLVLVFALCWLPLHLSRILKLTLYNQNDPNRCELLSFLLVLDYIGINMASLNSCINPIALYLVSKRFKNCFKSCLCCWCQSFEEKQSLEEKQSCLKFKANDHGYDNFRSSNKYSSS
Method: 293T-17 cells were seeded at a density of 650,000 cells per well in a 6-well plate and cultured overnight in an incubator at 37°C and 5% CO2. Afterward, the cells were transfected with an expression vector, PCDNA3.1-hETB which contained a human ETB receptor gene, at a plasmid concentration of 2.5 µg per well. The cells were further cultured for 48 hours, and green fluorescence expression was observed under a fluorescence microscope. The cells were then digested with trypsin and counted. The activity of compounds on the human ETB receptor was determined with the IP-One Gq kit from Cisbio Bioassays. The cells were suspended in Stim Buffer provided in the kit and the cell suspension was added to a 96-well detection plate at 7 µL cell suspension (containing 30,000 cells) per well. The polypeptides to be tested (prepared according to the Preparation Example of the invention) were diluted in Stim B to obtain a gradient of 11 concentration points. For each concentration point, the polypeptides to be tested were dissolved in Stim B to be at a concentration of 2×, and added at 7 µL to the test cells, while 7 µL of PBS solution was added to the cells in the negative control wells. The plate was sealed and incubated at 37°C for 1 hour in a cell culture incubator. Detection wells, positive control wells containing human endothelin ET1 (ET1: […] (C1-C15,C3-C11)), and PBS control wells were each added with 3 µL of IP1 d2 working solution and 3 µL of IP1 Tb cryptotate Antibody working solution. The plate was then sealed and incubated in the dark at room temperature (25°C±5°C) for 1 hour. The plate seal was removed, and the […] at 665 nm and 620 nm was measured with an ID5 microplate reader. The ratio of the acceptor emission signal to the donor emission signal, i.e., (signal at 665 nm/signal at 620 nm)×10^4, was calculated for each well. With F representing the average value of values of signal at 665 nm/signal at 620 nm for the test samples at various concentrations, a scatterplot was plotted, where the abscissa represented the F value, and the ordinate represented the logarithmic value of the peptide concentration. A curve was fitted with an appropriate method to calculate EC50 values of the polypeptides against the human ETB receptor. Another method was provided for fitting a curve where activation rate of the test polypeptides at each concentration relative to the positive control sample human endothelin ET1 was calculated first with the method in Example 1, and a scatterplot was plotted, where the abscissa represented the activation rate, and the ordinate represented the logarithmic value of the polypeptide concentration. A curve was fitted with an appropriate method to calculate the EC50 values of the polypeptides against the human ETB receptor.

human ETA receptor = molecular target: T2, human ETA receptor (Homo sapiens, UniProt P25101); assay: Selectivity of polypeptides on human ETA receptor (IP-One Gq kit, % of positive control ET1); format: cell-based; details: read-out: hETAR agonist activity, percentage of activity relative to ET1
T2 construct: expressed in transfected cells; host or cells: 293T-17 cells, transient transfection
T2 sequence (P25101 21-427): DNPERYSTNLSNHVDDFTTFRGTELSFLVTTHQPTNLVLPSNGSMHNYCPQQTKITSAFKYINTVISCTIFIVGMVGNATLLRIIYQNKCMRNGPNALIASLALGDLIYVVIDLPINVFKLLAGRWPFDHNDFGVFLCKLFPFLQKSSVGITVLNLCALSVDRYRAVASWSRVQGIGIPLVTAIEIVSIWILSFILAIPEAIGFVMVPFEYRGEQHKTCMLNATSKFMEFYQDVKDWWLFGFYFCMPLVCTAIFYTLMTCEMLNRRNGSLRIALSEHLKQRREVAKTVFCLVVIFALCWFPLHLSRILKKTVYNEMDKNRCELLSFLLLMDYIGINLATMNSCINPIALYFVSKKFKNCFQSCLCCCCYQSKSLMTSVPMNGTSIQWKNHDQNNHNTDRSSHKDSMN
In short: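 293T-17 cells transiently transfected with human ETA receptor (48 h), 30,000 cells/well exposed to polypeptides for 1 h at 37°C; IP1 accumulation by HTRF (665/620 nm ratio). Activity given as % of ET1 at the same concentration after PBS-control subtraction.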

rat model of pMACO [1] = assay: Grip strength test in rat model of pMACO; format: in vivo, SD rats; details: pMACO rats; 3 administrations (2, 4, 6 h after modeling); IRL1620 5µg/Kg, BX34 7µg/Kg, BX48 5µg/Kg
rat model of pMACO [2] = assay: Rotarod test in rat model of pMACO; format: in vivo, SD rats; details: IRL1620 5 µg/Kg, BX34 7 µg/Kg, BX48 5 µg/Kg, administered 3 times (2, 4, 6 hours after modeling), n=10
Source text: (§1) Male SD rats weighing 280-300 g were used and acclimated for at least 3 days. Focal cerebral ischemia was induced by middle cerebral artery occlusion with a suture method under isoflurane anesthesia. The animals were placed in a secure supine position, and a midline incision was made to expose the right common carotid artery, external carotid artery, and internal carotid artery. A 4.0 monofilament nylon suture was advanced from the external carotid artery toward the internal carotid artery lumen until resistance was felt ( ~ 20 mm), indicating middle cerebral artery occlusion. The nylon filament was allowed to stay in place to create a permanent model of focal cerebral ischemia. Successfully modeled rats were randomly assigned to four groups: a solvent (normal saline) group (n=10), a 7 µg/Kg BX-34 group (n=10), a 5 µg/Kg BX-48 group (n=10), and a 5 µg/Kg IRL1620 group (n=10). Each group was administered once at 2 hours, 4 hours, and 6 hours, respectively, after modeling, for a total of three administrations. Grip strength was measured before administration and at 24 hours and on D3 and D7 after administration. A rotarod test and a foot fault test were performed before administration and at 24 hours and day 7 after administration. During the rotarod test, time and distance were recorded, and ratios of the measurement at 24 hours and the measurement at D7 to the pretest measurement were used as analysis indicators. The specific method for the foot fault test was as follows. The rats were placed on an elevated grid floor (29×29 cm, grid opening: 3 cm^2) for 2 minutes, and the number of foot faults (when a forelimb fell through the grid) and the total steps were recorded. % Foot fault = (the number of forelimb faults/the total number of forelimb steps) × 100.

rat model of pMACO [3] = assay: Foot fault test in rat model of pMACO; format: in vivo, SD rats
Source text: as §1

rat model of pMACO [4] = assay: Foot fault test in rat model of pMACO; format: in vivo, SD rats; details: rat pMCAO; D7 after administration; comparison in words
[5] = Determination of half-lives of polypeptides (plasma, LC-MS)

- EC50 (human ETB receptor): 11.8 nM
SMILES: CC[C@H](C)[C@H](NC(=O)[C@H](CC(=O)O)NC(=O)[C@H](CCCCN)NC(=O)[C@H](Cc1c[nH]cn1)NC(=O)[C@H](C)NC(=O)[C@H](Cc1ccccc1)NC(=O)[C@H](Cc1ccc(O)cc1)NC(=O)[C@@H](NC(=O)[C@H](C)NC(=O)[C@H](CCC(=O)O)NC(=O)[C@H](CCC(=O)O)NC(=O)[C@H](CC(=O)O)NC(=O)/C=C/C(=O)O)C(C)C)C(=O)N[C@H](C(=O)NC(Cc1ccc2ccccc2c1)C(=O)O)[C@@H](C)CC (stereo partly shown) [BX-13-2] (Fumaroyl-DEEAVYFAHKDII[ξ2Nal]-OH; C-terminus assumed)

SMILES: CC[C@H](C)[C@H](NC(=O)[C@H](CC(=O)O)NC(=O)[C@H](CCCCN)NC(=O)[C@H](Cc1c[nH]cn1)NC(=O)[C@H](C)NC(=O)[C@H](Cc1ccccc1)NC(=O)[C@H](Cc1ccc(O)cc1)NC(=O)[C@@H](NC(=O)[C@H](C)NC(=O)[C@H](CCC(=O)O)NC(=O)[C@H](CCC(=O)O)NC(=O)[C@H](CC(=O)O)NC(=O)/C=C/c1ccc(O)c(OC)c1)C(C)C)C(=O)N[C@H](C(=O)N[C@@H](Cc1c[nH]c2ccccc12)C(=O)O)[C@@H](C)CC [BX-15] (Feruloyl-DEEAVYFAHKDIIW-OH; C-terminus assumed)
- EC50 (human ETB receptor): 41.1 nM

SMILES: CC[C@H](C)[C@H](NC(=O)[C@H](CC(=O)O)NC(=O)[C@H](CC(C)C)NC(=O)[C@H](Cc1c[nH]cn1)NC(=O)[C@H](C)NC(=O)[C@H](Cc1ccccc1)NC(=O)[C@H](Cc1ccc(O)cc1)NC(=O)[C@@H]1CCCCNC(=O)CC[C@H](NC(=O)[C@H](CC(=O)O)NC(=O)CCC(=O)O)C(=O)N[C@@H](CCC(=O)O)C(=O)N[C@@H](C)C(=O)N1)C(=O)N[C@H](C(=O)N[C@@H](Cc1c[nH]c2ccccc12)C(=O)O)[C@@H](C)CC [BX-48] (Suc-DEEAKYFAHLDIIW-OH; lactam 2-5)
- activation at 10 µM (human ETA receptor; @10µM): 4.45%
- activation at 100 µM (human ETA receptor; @100µM): 9.37%
- Grip Strength Test 3D/pre (rat model of pMACO [1]): 60% ±7%
- Grip Strength Test 7D/pre (rat model of pMACO [1]): 66% ±22%
- Grip Strength Test 24h/pre (rat model of pMACO [1]): 47% ±23%
- Rotarod Test 7D/pretest (%) Distance, m (rat model of pMACO [2]; 7D relative to pretest): 64.97%±19.43%
- Rotarod Test 7D/pretest (%) Time, s (rat model of pMACO [2]; 7D relative to pretest): 81.64%±10.87%
- Rotarod Test 7D/pretest (%) Velocity (rat model of pMACO [2]; 7D relative to pretest): 76.52%±13.55%
- Rotarod Test 24h/pretest (%) Distance, m (rat model of pMACO [2]; 24h relative to pretest): 16.15%±22.62%
- Rotarod Test 24h/pretest (%) Time, s (rat model of pMACO [2]; 24h relative to pretest): 23.79%±27.04%
- Rotarod Test 24h/pretest (%) Velocity (rat model of pMACO [2]; 24h relative to pretest): 47.16%±30.9A %
- percentages of foot faults compared with the saline group and the IRL1620 group (rat model of pMACO [3]; pMACO rats, BX-34 7 µg/Kg, BX-48 5 µg/Kg, three administrations): lower
- Foot fault Analysis Mean of 7D (rat model of pMACO [3]; percentage of foot faults at 7D, IRL1620 5 µg/Kg, BX34 7 µg/Kg, BX48 5 µg/Kg, administered 3 times (2, 4, 6 hours after modeling)): 2.24%±3.1%
- Foot fault Analysis Mean of 24h (rat model of pMACO [3]; percentage of foot faults at 24h, IRL1620 5 µg/Kg, BX34 7 µg/Kg, BX48 5 µg/Kg, administered 3 times (2, 4, 6 hours after modeling)): 10.89%±10.53%
- Foot fault Analysis Mean of Pretest (rat model of pMACO [3]; percentage of foot faults, pretest (baseline before administration), groups IRL1620 5 µg/Kg, BX34 7 µg/Kg, BX48 5 µg/Kg, 3 times): 1.11%±0.95%
- percentages of foot faults (rat model of pMACO [4]): lower than that of the saline group and the IRL1620 group
- half-life ([5]; C57 BL/6, mouse, plasma, iv): 3.9 min
- AUClast 0-30 min ([5]; C57 BL/6 mice, i.v., dosage per compound 0.48, 0.96 or 1 mpk): 757 ng·h/mL

SMILES: CCCCCCCCCCCC(=O)N[C@@H](CCC(=O)NCCOCCOCC(=O)NCCCC[C@H](NC(=O)[C@H](Cc1c[nH]cn1)NC(=O)[C@H](C)NC(=O)[C@H](Cc1ccccc1)NC(=O)[C@H](Cc1ccc(O)cc1)NC(=O)[C@@H](NC(=O)[C@H](C)NC(=O)[C@H](CCC(=O)O)NC(=O)[C@H](CCC(=O)O)NC(=O)[C@H](CC(=O)O)NC(=O)/C=C/C(=O)O)C(C)C)C(=O)N[C@@H](CC(=O)O)C(=O)N[C@H](C(=O)N[C@H](C(=O)N[C@@H](Cc1c[nH]c2ccccc12)C(=O)O)[C@@H](C)CC)[C@@H](C)CC)C(=O)O [BX-225-Na] (Fumaroyl-DEEAVYFAHK([AEEA-γGlu-Lauroyl])DIIW-OH)
- EC50 (human ETB receptor): 134 nM

SMILES: CC[C@H](C)[C@H](NC(=O)[C@H](CC(=O)O)NC(=O)[C@@H]1CCCCNC(=O)CC[C@H](NC(=O)[C@H](CCC(=O)O)NC(=O)[C@H](CCC(=O)O)NC(=O)[C@H](CC(=O)O)NC(=O)/C=C/C(=O)O)C(=O)N[C@@H](C(C)C)C(=O)N[C@@H](Cc2ccc(O)cc2)C(=O)N[C@@H](Cc2ccccc2)C(=O)N[C@@H](CCCCN)C(=O)N[C@@H](Cc2c[nH]cn2)C(=O)N1)C(=O)N[C@H](C(=O)N[C@@H](Cc1c[nH]c2ccccc12)C(=O)O)[C@@H](C)CC [QP-3] (Fumaroyl-DEEEVYFKHKDIIW-OH; lactam 4-10)
- EC50 (human ETB receptor): 3.85 nM
